“And” between values parts separate entries of the source, which are not always exact repeats. Equal entries are not always repeated.
Tests used:
Format in all cases: cell-based
lactic acid organisms = test: Growth of lactic acid organisms in sectioned and formed ham (Example 7); conditions: after 8 weeks storage at 1.11° C., no phosphate: 7.42
Procedure: (§1) Five 16 Kg batches of restructured ham were prepared. Fresh whole pork hams were skinned, boned, sectioned into muscles, and each muscle trimmed to remove all trimmable connective tissue and subcutaneous and intramuscular fat. […] The pumped muscles were macerated manually to facilitate brine absorption; tumbled; and stuffed into fibrous casings in 908.0 g chubs. The hams were weighed and then cooked to 71.1° C. internal temperature. Cooked hams were chilled for 24 hr at 0° C., vacuum packaged, and stored at 1.11° C. for 8 weeks. Sample homogenate was prepared by blending 11 g of ham with 99 mL of sterile 0.1% peptone diluent and agitating for 1 min in a stomacher. Serial dilutions were prepared by transferring 1.0 mL aliquots of the sample diluent to 9 mL of sterile 0.1% peptone. […] Duplicate samples were analyzed for each treatment.

psychrotrophic organisms [1] = test: Growth of psychrotrophic microorganisms in sectioned and formed ham (Example 7); conditions: after 8 weeks storage at 1.11° C., no phosphate: 7.79
Procedure: as §1

psychrotrophic organisms [2] = test: Growth of psychrotrophic microorganisms in sectioned and formed ham (Example 6); conditions: 0.4% by weight phosphate in cooked ham; after 8 weeks storage at 0° C.; no phosphate: 3.97; listed as Sodium tripolyphosphate (pH about 9.8)
Procedure: Seven batches 40-pound (about 18.2 Kg) of cooked sectioned and formed boneless ham were manufactured to meet the following specifications: moisture, 71.2-73.7%; protein, 18.1-19.8%; fat, 3.66-6.31%; salt, 2.0%; and phosphate, 0.4%. The hams were manufactured to conform to the standards of identity for a cooked ham with a minimum of 18.5% protein fat free (PFF). The phosphate salts (0.4% by weight) indicated in Table 6 were added to six of the hams. […] After injection, the hams were vacuum-tumbled for 45 min, stuffed into 6.5-in (about 16.5 cm) diameter fibrous casings, and then cooked to an internal temperature of 71.1° C. Cooked hams were chilled for 8 hr at 0° C., vacuum packaged, and stored at 0° C. for 8 weeks. Sample homogenate was prepared by blending 11 g of ham with 99 mL of sterile 0.1% peptone diluent and agitating for 1 min in a stomacher. Serial dilutions were prepared by transferring 1.0 mL aliquots of the sample diluent to 9 mL of sterile 0.1% peptone. The appropriate dilutions were plated on plate count agar. The plates were incubated at 7° C. for 10 days.

aerobic plate count = test: Aerobic plate count in sectioned and formed ham (Example 7); conditions: after 8 weeks storage at 1.11° C., no phosphate: 6.03
Procedure: as §1

| SMILES | log (colony forming units)/g (lactic acid organisms; 0.4% phosphate in ham) | log (colony forming units)/g (lactic acid organisms; 1.0% phosphate in ham) | log (colony forming units)/g (psychrotrophic organisms [1]; 0.4% phosphate in ham) | log (colony forming units)/g (psychrotrophic organisms [1]; 1.0% phosphate in ham) | log (colony forming units)/g (psychrotrophic organisms [2]) | log (colony forming units)/g (aerobic plate count; 0.4% phosphate in ham) | log (colony forming units)/g (aerobic plate count; 1.0% phosphate in ham) |
| --- | --- | --- | --- | --- | --- | --- | --- |
| O=P(O)(O)OP(=O)(O)OP(=O)(O)O [Sodium tripolyphosphate] | 6.62 log (colony forming units)/g | 6.70 log (colony forming units)/g | 7.8 log (colony forming units)/g | 5.91 log (colony forming units)/g | 1.58 log (colony forming units)/g and 1.84 log (colony forming units)/g | 6.69 log (colony forming units)/g | 5.67 log (colony forming units)/g |
| O=P([O-])(O)OP(=O)([O-])O.[Na+].[Na+] [Sodium acid pyrophosphate] |  | 5.38 log (colony forming units)/g |  | 5.28 log (colony forming units)/g |  |  | 4.49 log (colony forming units)/g |
| O=P1([O-])OP(=O)([O-])OP(=O)([O-])OP(=O)([O-])OP(=O)([O-])OP(=O)([O-])O1.[Na+].[Na+].[Na+].[Na+].[Na+].[Na+] [Sodium hexametaphosphate] |  | 6.24 log (colony forming units)/g |  | 4.62 log (colony forming units)/g |  |  | 4.55 log (colony forming units)/g |

Reference: patent US6509050B1, “Use of antimicrobial polyphosphates in food processing” (Astaris LLC, priority 1999, dated 2003)
